Measured values: patent US6339104B1, “Therapeutic agent for primary biliary cirrhosis” (The City of Osaka, priority 1998, dated 2002)

Tested on: patient with primary biliary cirrhosis (stage IV in Scheuer classification)
Assay: Clinical effect of oral L-alanine in a patient with terminal-stage primary biliary cirrhosis
Format: in vivo, human
Protocol: The clinical effect of L-alanine was examined in a patient with primary biliary cirrhosis. The patient was suffering from primary biliary cirrhosis in the terminal stages (stage IV in Scheuer classification). After their symptoms had appeared, 600 mg/day of ursodeoxycholic acid was orally administered as a therapeutic agent everyday. However, this treatment became ineffective and the results of biochemical tests also became worse. Under these conditions, 18 g/day of L-alanine was orally administered to the patient in three doses every day for two months. Before and after the administration of L-alanine, two weeks in total of the observation period was taken, and then eight weeks of the administration period was taken. The blood specimen was taken once a week to determine total serum bilirubin and transaminase (AST). By the administration of L-alanine, total serum bilirubin and transaminase were reduced. […] As the administration was finished, increase of both total serum bilirubin and transaminase was observed.

[1] = observation period after end of 18 g/day oral administration
[2] = patient, 18 g/day orally in three doses, eight weeks administration, weekly blood specimen

With `C[C@H](N)C(=O)O` [L-alanine] the “time of maximum effect after the start of the administration” value (18 g/day orally, effect on total serum bilirubin and transaminase, lasted in the course of the administration) was “two”, the “therapeutic effect on the terminal case of primary biliary cirrhosis (symptoms)” value (L-alanine 18 g/day orally, ursodeoxycholic acid 600 mg/day orally) was “excellent therapeutic effect” and the “total serum bilirubin after the administration was finished” value [1] was “increase”. The “transaminase after the administration was finished” value [1] was “increase”, the total serum bilirubin [2] was “reduced” and the “transaminase (AST)” value [2] was “reduced”.
